The results in this text go back to patent US12516058B2, “Small-molecule compounds for controlling endosomal toll-like receptors and therapeutic agent for autoimmune diseases using same” (priority 2020, dated 2026).

For data set [1], the target named is T1, TLR5 (Homo sapiens, UniProt O60602).
T1 construct: endogenous in cells; host or cells: THP-1 (differentiated)
Nature of the data set: TNF-α secretion ELISA after FLA-ST in differentiated THP-1 cells. In kind it is cell-based. How it is done:
In order to determine the inhibitory activity of the test-ligand against TLR5, differentiated THP-1 cells were pretreated with each compound for 1 hour and then treated with FLA-ST ([…] flagellar protein, TLR5, Invitrogen) for 4 hours. After activation of the TLRs, the supernatant was diluted and transferred to a pre-coated 96-well assay plate, and the level of human TNF-alpha secretion was measured in accordance with the manufacturer's instructions using the human TNF-alpha ELISA-kit (Invitrogen).
(§1) In order to determine the inhibitory activities of SK41, SK50, SK58 and SK64 on various TLR signaling pathways, RAW 264.7 cells were cultured along with each compound and then stimulated with different TLR agonists. The TLR agonists used herein were Pam3CSK4 (TLR1/2), FSL-1 (TLR2/6), LPS (TLR4) and FLA-ST (TLR5) as cell surface TLRs, and poly I:C (TLR3) and TL8-506 (TLR8) as endosomal TLRs.
A general note: ELISA stands for enzyme-linked immunosorbent assay.

The target in data set [2] is T2, TLR1/2 (Mus musculus, UniProt Q9EPQ1+Q9QUN7).
T2 construct: endogenous in cells; host or cells: RAW 264.7
T2 sequence (Q9EPQ1 26-795): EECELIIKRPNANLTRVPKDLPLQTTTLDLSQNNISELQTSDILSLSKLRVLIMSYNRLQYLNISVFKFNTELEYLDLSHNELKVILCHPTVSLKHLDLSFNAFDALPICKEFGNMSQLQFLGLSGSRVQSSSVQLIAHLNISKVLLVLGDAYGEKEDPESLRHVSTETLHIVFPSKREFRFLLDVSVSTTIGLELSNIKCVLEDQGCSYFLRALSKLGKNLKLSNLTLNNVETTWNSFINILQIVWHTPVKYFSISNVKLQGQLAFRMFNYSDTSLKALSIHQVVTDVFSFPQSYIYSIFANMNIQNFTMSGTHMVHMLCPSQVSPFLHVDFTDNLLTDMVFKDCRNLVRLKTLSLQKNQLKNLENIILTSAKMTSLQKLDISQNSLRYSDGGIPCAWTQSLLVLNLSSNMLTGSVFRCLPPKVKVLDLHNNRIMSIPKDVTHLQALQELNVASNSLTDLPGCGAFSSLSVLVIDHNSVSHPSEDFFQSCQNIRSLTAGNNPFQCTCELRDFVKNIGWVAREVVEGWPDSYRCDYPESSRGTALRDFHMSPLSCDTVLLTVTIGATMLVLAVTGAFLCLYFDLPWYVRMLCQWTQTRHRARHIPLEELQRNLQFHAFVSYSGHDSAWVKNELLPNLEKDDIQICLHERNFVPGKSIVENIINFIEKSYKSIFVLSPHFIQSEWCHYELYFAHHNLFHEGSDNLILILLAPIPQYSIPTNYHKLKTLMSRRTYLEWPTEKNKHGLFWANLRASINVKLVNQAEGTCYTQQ
T2 sequence (Q9QUN7 25-784): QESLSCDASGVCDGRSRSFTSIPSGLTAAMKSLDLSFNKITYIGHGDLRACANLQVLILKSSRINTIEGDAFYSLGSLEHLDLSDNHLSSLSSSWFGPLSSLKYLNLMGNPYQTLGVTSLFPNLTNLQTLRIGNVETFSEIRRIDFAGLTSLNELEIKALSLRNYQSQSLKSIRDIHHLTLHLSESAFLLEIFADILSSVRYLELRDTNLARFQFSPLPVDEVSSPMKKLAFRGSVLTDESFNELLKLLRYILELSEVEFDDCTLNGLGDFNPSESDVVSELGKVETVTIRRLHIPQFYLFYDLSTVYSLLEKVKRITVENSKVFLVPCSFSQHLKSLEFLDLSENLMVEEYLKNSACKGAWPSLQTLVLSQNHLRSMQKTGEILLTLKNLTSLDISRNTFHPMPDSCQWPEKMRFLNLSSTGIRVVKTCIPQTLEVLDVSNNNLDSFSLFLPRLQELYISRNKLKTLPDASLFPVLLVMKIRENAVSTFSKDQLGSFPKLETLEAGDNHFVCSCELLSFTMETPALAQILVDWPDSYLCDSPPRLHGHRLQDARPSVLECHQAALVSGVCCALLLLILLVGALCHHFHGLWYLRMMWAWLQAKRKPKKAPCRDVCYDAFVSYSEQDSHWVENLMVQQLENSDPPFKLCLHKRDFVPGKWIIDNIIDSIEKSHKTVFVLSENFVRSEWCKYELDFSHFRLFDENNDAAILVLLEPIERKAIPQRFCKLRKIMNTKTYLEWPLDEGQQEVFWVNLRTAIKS
As to the kind of experiment: TNF-α secretion ELISA after Pam3CSK4 in RAW 264.7 cells. In kind it is cell-based. As for the experimental part:
(§2) In order to determine the inhibitory activities of the test-ligand, RAW 264.7 cells were pretreated with each candidate compound for 1 hour, then treated with Pam3CSK4 (synthetic triacyl lipopeptide; TLR1/2, Invitrogen), FSL-1 (synthetic diacyl lipoprotein, TLR2/6, 100 ng/ml), lipopolysaccharide (LPS, TLR4, Sigma Aldrich), imiquimod (IMQ, TLR7, Invitrogen), and ODN2395 (type C CpG repeat motif DNA oligo(5′-[…]-3), TLR9, Bioneer) ligand for 4 hours, and treated with poly I:C (I:C repeat motif double-stranded RNA, TLR3, Invitrogen) and TL8-506 (TLR8, Invitrogen) showing delayed reactivity for 24 hours. After activation of TLR, the supernatant was diluted in an appropriate ratio so as to measure within the standard dose range, transferred to a pre-coated 96-well assay plate, and then treated with mouse TNF-alpha secretion level in accordance with the manufacturer's instructions using a mouse-TNF-alpha ELISA-kit (Invitrogen).
as §1

Data set [3] relates to RAW 264.7 cells. Nature of the data set: MTT cytotoxicity (LC50) and therapeutic index analysis. The data set is classed as cell-based, mouse. The conditions noted are these: 24 h, among the 13 selected compounds. As for the experimental part: RAW 264.7 cells were seeded at a density of 2×10^4 cells/well in a 96-well cell culture plate and stabilized overnight in a humidified incubator. Each well was treated with a test compound or negative control (dimethyl sulfoxide; DMSO). The plates were allowed to stand in an incubator for 24 hours. Then, the medium of the 96-well culture dish was discarded and 500 μg/ml MTT solution (InvivoGen Ltd.) was added to each well. After incubation for 3 hours, the solution was removed and the residue was incubated in DMSO (Biosesang Co. Ltd., Korea) for 30 minutes to completely dissolve the formazan dye. The absorbance was measured at a wavelength of 595 nm with a microplate colorimetric reader and normalized based on the untreated control. All cultures were performed under the same conditions as in the cell culture described above.
In order to plot the concentration-dependent LC50 curves, treatment with the SK series ligands at different concentrations up to 200 μM (the highest concentration that could be treated within the level of 0.5% DMSO) was performed. Then, cell viability and toxicity response upon treatment with ligands were analyzed by MTT as described in Examples 1-3. Cell viability in each plot was normalized from negative control (100%; no treatment) to positive control (highest concentration of test-ligand), and LC50 was determined by non-linear regression (Graph Pad Prism 7.0). In order to plot the concentration-dependent IC50 curves, pre-treatment with the SK series ligands was performed at different concentrations up to 50 μM (twice the initial concentration). Cell responses mediated by TLR7 and TLR9 (levels of TNF-α secretion) were analyzed by ELISA as described in Examples 1-4. The cytokine level in each plot was normalized from negative control (non-treated) to positive control (treatment with ligand), and IC50 was determined by non-linear regression (Graph Pad Prism 7.0).
Then, LC50 and IC50 were applied to the following function to calculate TI.

In data set [4] the test system is MRL/lpr (MRL/Fas^lpr) mice. Nature of the data set: MRL/lpr systemic lupus erythematosus mouse model, oral administration. The conditions noted are these: for change in body weight (index for long-term administration toxicity): daily oral, monitored at 3-day intervals; for antinuclear antibody (ANA) in blood plasma / C3 complement in blood plasma: end of experiment, ELISA, vs vehicle and HCQ 60 mg/Kg; for antinuclear antibody (ANA) in blood plasma: reaches normal as it decreases; for C3 complement in blood plasma: reaches normal as it increases; for visual (apparent) healing effect: oral once a day for 4 weeks, 15 mg/Kg for SK series and HCQ; for visual therapeutic effects: oral once a day, SK series 30 mg/Kg, HCQ 60 mg/Kg. In kind it is in vivo. How it is done:
14-weeks-old, 36-40 g, female MRL/lpr (or MRL/Fas^lpr) mice (purchased from the Jackson Laboratory, USA through Orient Bio) were used for the lupus treatment effect experiment and breeding was performed in accordance with the breeding and ethics regulations of the Laboratory Animal Research Center of the Ajou University Medical Center. Prior to the experiment, 4 to 5 animals were randomly assigned to each of a negative control group (Vehicle), a positive control group (HCQ), and an experimental compound group (SK41, SK50, SK58 and SK64) for blinding, and each of SK41, SK50, SK58, and SK64 compounds was completely dissolved in a vehicle consisting of ethanol (ethyl alcohol) 10%, polyethylene glycol 400 40% and sterile distilled water 50%, and then the solution was orally administered to experimental animals.
As for the administration method, only the same amount of vehicle was administered to the negative control group, 15-60 MPK (15-60 mg/Kg) of HCQ was administered daily to the positive control group, and SK41, SK50, SK58 and SK64 was administered daily in an amount of 15-30 MPK (15-30 mg/Kg) to the experimental compound group, […] experimental mice were 14 weeks old.
As for the sample collection method, the weight of the experimental mice was measured at 3-day intervals, and the mice were subjected to inhalational anesthesia and euthanasia using IFRAN liquid (Hana Pharmaceutical, Korea; ingredient name: Isoflurane) on the day of expiry of 40 days, and then blood, kidney, spleen and axillary lymph nodes and inguinal lymph nodes were collected therefrom.
Blood samples were collected from the heart of an anesthetized mouse, the serum was extracted therefrom using a serum separation tube and a centrifuge (4,000 rpm, 10 minutes, 4° C.), and blood concentrations of ANA (anti-nuclear Antibody, MyBioSourse, USA) as a lupus severity indicator molecule and C3 complement (MyBioSourse, USA), a comprehensive inflammatory indicator molecule, were measured through enzyme-linked immunosorbent assay (ELISA).
Organs were treated with an RNA stabilization agent (RNA Stabilization Reagent, Germany, QUIAGEN) immediately after extraction to preserve the condition and prepare specimens, the organs were imaged and weighed to determine whether or not the organs are damaged and to measure the degree of immune organ hypertrophy, and the sum of the weights of one pair of axillary lymph nodes and one pair of inguinal lymph nodes was recorded as the weight of the lymph nodes.

Data set [5] addresses T3, TLR2/6 (Mus musculus, UniProt Q9EPW9+Q9QUN7).
T3 construct: endogenous in cells; host or cells: RAW 264.7
Nature of the data set: TNF-α secretion ELISA after FSL-1 in RAW 264.7 cells. The data set is classed as cell-based. How it is done: as §2, §1

Setting [6] is: after administration for 40 days, 30 mg/Kg.

“Also recorded” adds a separate entry of the source.

T1 sequence (O60602 21-858): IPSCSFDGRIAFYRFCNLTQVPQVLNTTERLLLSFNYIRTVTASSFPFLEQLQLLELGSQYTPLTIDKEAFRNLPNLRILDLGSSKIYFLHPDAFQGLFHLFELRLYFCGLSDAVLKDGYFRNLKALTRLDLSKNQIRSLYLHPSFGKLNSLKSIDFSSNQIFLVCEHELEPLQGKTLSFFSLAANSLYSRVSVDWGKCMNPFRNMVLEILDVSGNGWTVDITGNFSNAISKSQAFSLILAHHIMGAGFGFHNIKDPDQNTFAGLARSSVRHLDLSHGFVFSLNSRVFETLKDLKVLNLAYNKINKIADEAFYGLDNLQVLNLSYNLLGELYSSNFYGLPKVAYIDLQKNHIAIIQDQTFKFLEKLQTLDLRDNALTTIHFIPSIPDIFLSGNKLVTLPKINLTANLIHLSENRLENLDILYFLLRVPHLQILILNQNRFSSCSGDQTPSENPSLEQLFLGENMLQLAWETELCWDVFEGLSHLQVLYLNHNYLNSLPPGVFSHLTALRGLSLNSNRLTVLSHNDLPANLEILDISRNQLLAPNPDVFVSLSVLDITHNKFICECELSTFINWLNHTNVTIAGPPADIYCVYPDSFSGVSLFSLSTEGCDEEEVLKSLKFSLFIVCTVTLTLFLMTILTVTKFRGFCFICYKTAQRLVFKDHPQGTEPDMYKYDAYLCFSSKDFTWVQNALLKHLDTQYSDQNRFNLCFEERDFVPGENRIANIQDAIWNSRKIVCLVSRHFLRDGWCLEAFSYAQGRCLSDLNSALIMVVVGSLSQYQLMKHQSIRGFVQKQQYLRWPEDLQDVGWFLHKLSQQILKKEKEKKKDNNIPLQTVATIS
T3 sequence (Q9QUN7 25-784): as the sequence (Q9QUN7 25-784) above
T3 sequence (Q9EPW9 28-795): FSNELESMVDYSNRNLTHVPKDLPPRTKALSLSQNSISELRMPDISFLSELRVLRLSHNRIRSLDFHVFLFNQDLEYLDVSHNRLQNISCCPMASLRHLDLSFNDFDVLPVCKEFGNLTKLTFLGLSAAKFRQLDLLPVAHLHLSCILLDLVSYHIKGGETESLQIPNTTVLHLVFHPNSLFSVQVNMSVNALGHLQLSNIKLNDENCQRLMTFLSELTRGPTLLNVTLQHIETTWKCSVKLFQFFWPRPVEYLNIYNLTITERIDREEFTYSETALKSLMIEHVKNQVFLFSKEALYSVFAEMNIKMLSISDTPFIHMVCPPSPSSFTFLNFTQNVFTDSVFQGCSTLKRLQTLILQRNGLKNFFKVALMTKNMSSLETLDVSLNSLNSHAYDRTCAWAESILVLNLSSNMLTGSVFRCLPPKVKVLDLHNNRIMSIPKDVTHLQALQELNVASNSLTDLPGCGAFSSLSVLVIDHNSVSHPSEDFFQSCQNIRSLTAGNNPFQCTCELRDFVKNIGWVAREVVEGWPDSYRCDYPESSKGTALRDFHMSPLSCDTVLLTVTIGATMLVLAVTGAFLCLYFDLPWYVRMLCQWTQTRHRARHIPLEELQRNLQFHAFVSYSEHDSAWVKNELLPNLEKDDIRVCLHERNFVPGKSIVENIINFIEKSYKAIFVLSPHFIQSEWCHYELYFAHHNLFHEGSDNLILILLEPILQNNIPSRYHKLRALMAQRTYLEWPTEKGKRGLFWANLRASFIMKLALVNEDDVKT

`Cc1cc2c(N)c3c(nc2n1CCCN(C)C)CCCCCC3` [SK41, 1-(3-(dimethylamino)propyl)-2-methyl-5,6,7,8,9,10-hexahydro-1H-cycloocta[b]pyrrolo[3,2-e]pyridin-4-amine]: in data set [1], the “inhibitory activity against cell surface TLR5 (TNF-α secretion)” value is recorded as “did not exhibit a specific inhibitory activity; also recorded: no inhibitory activities”. The “inhibitory activity against cell surface TLR1/2 (TNF-α secretion)” value in data set [2] was “did not exhibit a specific inhibitory activity; also recorded: no inhibitory activities”. Besides, the “toxicity (LC50)” value in data set [3] is “lower toxicity”. Further, the “appearance of the lymph nodes” value in data set [4] (setting [6]) is listed as “small inguinal lymph node sizes”. Also, in data set [4], the “change in body weight (index for long-term administration toxicity)” value is listed as “did not exhibit a change in body weight”, the “antinuclear antibody (ANA) in blood plasma” value is “significant results”, the “C3 complement in blood plasma” value is “significant results” and the “visual (apparent) healing effect” value was “superior visual (apparent) healing effect to that of HCQ”. The visual therapeutic effects entry in data set [4] is recorded as “superior to HCQ”. In data set [5], the “inhibitory activity against cell surface TLR2/6 (TNF-α secretion)” value is reported as “did not exhibit a specific inhibitory activity; also recorded: no inhibitory activities”.

With `COc1ccc2c(c1)c1c(N)c3c(nc1n2CCCN(C)C)CCCC3` [SK50, 6-(3-(dimethylamino)propyl)-9-methoxy-2,3,4,6-tetrahydro-1H-indolo[2,3-b]quinolin-11-amine], the “inhibitory activity against cell surface TLR5 (TNF-α secretion)” value in data set [1] is “did not exhibit a specific inhibitory activity; also recorded: no inhibitory activities”. The “inhibitory activity against cell surface TLR1/2 (TNF-α secretion)” value in data set [2] is recorded as “did not exhibit a specific inhibitory activity; also recorded: no inhibitory activities”. For the same compound, the “toxicity (LC50)” value in data set [3] is “lower toxicity”. In data set [4], the “change in body weight (index for long-term administration toxicity)” value is “did not exhibit a change in body weight”. Besides, in data set [5], the “inhibitory activity against cell surface TLR2/6 (TNF-α secretion)” value is given as “did not exhibit a specific inhibitory activity; also recorded: no inhibitory activities”.

Regarding `Cc1ccc2c(c1)c1c(N)c3c(nc1n2CCCN(C)C)CCCC3` [SK58, 6-(3-(dimethylamino)propyl)-9-methyl-2,3,4,6-tetrahydro-1H-indolo[2,3-b]quinolin-11-amine], the “inhibitory activity against cell surface TLR5 (TNF-α secretion)” value in data set [1] is reported as “did not exhibit a specific inhibitory activity; also recorded: no inhibitory activities”. In addition, the “inhibitory activity against cell surface TLR1/2 (TNF-α secretion)” value in data set [2] is listed as “did not exhibit a specific inhibitory activity; also recorded: no inhibitory activities”. Further, the “toxicity (LC50)” value in data set [3] is listed as “lower toxicity”. In addition, in data set [4] (setting [6]), the “appearance of the lymph nodes” value is listed as “relatively good”, the “weight of the lymph node” value is recorded as “relatively less swollen” and the “weight of the spleen” value is recorded as “relatively less swollen”. Moreover, in data set [4], the “change in body weight (index for long-term administration toxicity)” value was “did not exhibit a change in body weight”, the “antinuclear antibody (ANA) in blood plasma” value is “significant results; also recorded: low antinuclear antibody”, the “C3 complement in blood plasma” value is “significant results; also recorded: high C3 complement” and the “visual (apparent) healing effect” value is reported as “superior visual (apparent) healing effect to that of HCQ”. For the same compound, in data set [4], the visual therapeutic effects entry is “superior to HCQ”. Also, the “inhibitory activity against cell surface TLR2/6 (TNF-α secretion)” value in data set [5] is on record as “did not exhibit a specific inhibitory activity; also recorded: no inhibitory activities”.

Turning to `COC(=O)c1ccc2c(c1)c1c(N)c3c(nc1n2CCCN(C)C)CCCC3` [SK64, Methyl 11-amino-6-(3-(dimethylamino)propyl)-2,3,4,6-tetrahydro-1H-indolo[2,3-b]quinolin-9-carboxylate], the “inhibitory activity against cell surface TLR5 (TNF-α secretion)” value in data set [1] is on record as “did not exhibit a specific inhibitory activity; also recorded: no inhibitory activities”. Moreover, the “inhibitory activity against cell surface TLR1/2 (TNF-α secretion)” value in data set [2] is reported as “did not exhibit a specific inhibitory activity; also recorded: no inhibitory activities”. For the same compound, the “toxicity (LC50)” value in data set [3] is reported as “lower toxicity”. In data set [4], the “change in body weight (index for long-term administration toxicity)” value is “did not exhibit a change in body weight” and the visual therapeutic effects entry is recorded as “superior to HCQ”. Also, the “inhibitory activity against cell surface TLR2/6 (TNF-α secretion)” value in data set [5] is “did not exhibit a specific inhibitory activity; also recorded: no inhibitory activities”.
